Source: the NIST ThermoML archive (doi:10.1016/j.tca.2016.06.022)
± gives the expanded uncertainty stated by the source.

Tests used:
[1] = 101 kPa, Liquid, Vibrating tube method
[2] = xn = mol fraction of the nth substance listed; details: 101 kPa, Liquid, Vibrating tube method, x2 = 0

NCCN [ethane-1,2-diamine]
[1]
Details	mass density [kg/m3]
288.15 K	901.26 ± 0.51
298.15 K	891.9 ± 0.51
308.15 K	882.49 ± 0.51
323.15 K	868.23 ± 0.51
333.15 K	858.6 ± 0.52

O [water]
[1]
Details	mass density [kg/m3]
274.15 K	999.899 ± 0.5
275.15 K	999.94 ± 0.5
276.15 K	999.964 ± 0.5
277.15 K	999.972 ± 0.51
278.15 K	999.964 ± 0.5
279.15 K	999.94 ± 0.5
280.15 K	999.901 ± 0.5
281.15 K	999.848 ± 0.5
282.15 K	999.781 ± 0.5
283.15 K	999.699 ± 0.5
323.15 K	988.03 ± 0.5
333.15 K	983.191 ± 0.5

O [water] + NCCN
[2]
Details	mass density [kg/m3]
274.15 K	999.899 ± 0.5
275.15 K	999.94 ± 0.5
276.15 K	999.964 ± 0.5
277.15 K	999.972 ± 0.51
278.15 K	999.964 ± 0.5
279.15 K	999.94 ± 0.5
280.15 K	999.901 ± 0.5
281.15 K	999.848 ± 0.5
282.15 K	999.781 ± 0.5
283.15 K	999.699 ± 0.5
323.15 K	988.03 ± 0.5
333.15 K	983.191 ± 0.5
